Source: PMC8998838, “Functional Characterization of the Solute Carrier LAT-1 (SLC7A5/SLC2A3) in Human Brain Capillary Endothelial Cells with Rapid UPLC-MS/MS Quantification of Intracellular Isotopically Labelled L-Leucine” (International Journal of Molecular Sciences, 2022)

Target: T1, L-type amino acid transporter 1 (LAT-1/SLC7A5) (Homo sapiens, UniProt Q01650)
T1 construct: with CD98 (4F2hc; SLC3A2, also printed as SLC2A3)
Test: inhibition of [[…]6, […]]-L-leucine uptake in hCMEC/D3 cells, UPLC-MS/MS
Format: cell-based

T1 sequence (Q01650 whole entry): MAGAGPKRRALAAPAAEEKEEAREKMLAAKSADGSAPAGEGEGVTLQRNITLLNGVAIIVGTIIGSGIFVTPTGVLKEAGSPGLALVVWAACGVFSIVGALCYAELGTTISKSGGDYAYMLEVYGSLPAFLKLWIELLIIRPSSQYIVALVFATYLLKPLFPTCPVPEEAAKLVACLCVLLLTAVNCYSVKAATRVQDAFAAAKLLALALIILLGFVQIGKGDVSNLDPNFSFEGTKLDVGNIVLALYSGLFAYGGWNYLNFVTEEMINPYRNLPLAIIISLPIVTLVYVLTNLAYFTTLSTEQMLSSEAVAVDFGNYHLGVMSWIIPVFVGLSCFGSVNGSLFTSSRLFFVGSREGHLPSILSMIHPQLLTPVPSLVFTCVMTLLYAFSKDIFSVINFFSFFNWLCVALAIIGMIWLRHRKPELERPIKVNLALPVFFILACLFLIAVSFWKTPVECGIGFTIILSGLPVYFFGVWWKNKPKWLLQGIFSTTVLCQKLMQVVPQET
T1 sequence (P08195 103-630 partner): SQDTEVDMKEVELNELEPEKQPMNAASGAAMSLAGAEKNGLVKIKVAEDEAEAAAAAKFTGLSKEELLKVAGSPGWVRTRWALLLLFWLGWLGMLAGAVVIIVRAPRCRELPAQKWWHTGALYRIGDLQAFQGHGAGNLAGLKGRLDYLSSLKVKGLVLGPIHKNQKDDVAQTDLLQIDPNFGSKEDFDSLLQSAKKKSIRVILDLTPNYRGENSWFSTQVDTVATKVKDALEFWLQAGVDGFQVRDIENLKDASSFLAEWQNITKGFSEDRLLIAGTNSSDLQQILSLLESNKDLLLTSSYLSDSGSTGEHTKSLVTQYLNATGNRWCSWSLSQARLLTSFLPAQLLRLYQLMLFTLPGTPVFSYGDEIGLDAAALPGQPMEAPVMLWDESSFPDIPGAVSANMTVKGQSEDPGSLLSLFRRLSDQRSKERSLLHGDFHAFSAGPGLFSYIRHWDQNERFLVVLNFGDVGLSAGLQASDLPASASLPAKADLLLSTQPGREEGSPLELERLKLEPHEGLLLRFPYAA

IC50 | Compound
91 ± 39 µM | NC1(C(=O)O)CC2CCC1C2 (centres unmarked) [BCH, 2-aminobicyclo-(2,2,1)-heptane-2-carboxylic acid]
0.103 ± 0.015 µM | Nc1cc(COc2c(Cl)cc(C[C@H](N)C(=O)O)cc2Cl)c2oc(-c3ccccc3)nc2c1 [JPH203]
